From US20260184663A1, “INDENE COMPOUNDS, PHARMACEUTICAL COMPOSITIONS THEREOF, AND THEIR THERAPEUTIC APPLICATIONS” (NucMito Pharmaceuticals co. Ltd., priority 2022, published 2026)

Assays:
Format in all cases: cell-based
HepG2 (liver cancer) = test: Antiproliferative activity (CCK-8 cell viability), HepG2; settings: Homo sapiens, 72 h, read-out: Antiproliferative activity in cancerous cells, HepG2 (inhibition of cell growth); for inhibition at 3.3 µM: Compound concentration: 3.3 μM; for inhibition at 10 µM: Compound concentration: 10 μM
Procedure, shortened: (§1)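 Growth inhibition graded in bands from percent viability against DMSO vehicle, read as CCK-8 absorbance at 450 nm. Compound tested at 3.3, 10 or 30 μM for 72 h, 37 °C; media contained 10% FBS: DMEM for HepG2/SW480, MEM for HeLa, F-12K for A549.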

[1] = tested on: A431 (epidermoid carcinoma); test: Antiproliferative activity (CCK-8 cell viability), A431; settings: Homo sapiens, 72 h, read-out: Antiproliferative activity in cancerous cells, A431 (inhibition of cell growth); for inhibition at 3.3 µM: A-431, Compound concentration: 3.3 μM; for inhibition at 10 µM: A-431, Compound concentration: 10 μM
Procedure, shortened: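 This growth inhibition assay used A431 cells maintained in Dulbecco's modified Eagle's medium plus 10% fetal bovine serum. Cells were seeded in 96-well plates, treated with compound for 72 h at 37° C., and then given 10 μL CCK-8 solution. After a further 4 h, absorbance was read at 450 nm.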

[2] = tested on: A549 (lung adenocarcinoma); test: Antiproliferative activity (CCK-8 cell viability), A549; settings: Homo sapiens, 72 h, read-out: Antiproliferative activity in cancerous cells, A549 (inhibition of cell growth); for inhibition at 3.3 µM: Compound concentration: 3.3 μM; for inhibition at 10 µM: Compound concentration: 10 μM
Procedure, shortened: as §1

[3] = tested on: B16F10 (malignant melanoma); test: Antiproliferative activity (CCK-8 cell viability), B16F10; settings: Mus musculus, 72 h, read-out: Antiproliferative activity in cancerous cells, B16F10 (inhibition of cell growth); for inhibition at 3.3 µM: B16-F10, Compound concentration: 3.3 μM; for inhibition at 10 µM: B16-F10, Compound concentration: 10 μM
Procedure, shortened: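 Cell growth inhibition was measured in B16F10 malignant melanoma cells with a Cell Counting Kit-8 viability assay. Cells were maintained in DMEM plus 10% fetal bovine serum, seeded at 2,000-5,000 cells/well in 96-well plates, and treated for 72 h at 37° C. Viability was expressed relative to DMSO-treated vehicle control wells.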

SW480 (colon cancer) = test: Antiproliferative activity (CCK-8 cell viability), SW480; settings: Homo sapiens, 72 h; for inhibition at 3.3 µM: Compound concentration: 3.3 μM; for inhibition at 3.3 µM / inhibition at 10 µM: read-out: Antiproliferative activity in cancerous cells, SW480 (inhibition of cell growth); for inhibition at 10 µM: Compound concentration: 10 μM
Procedure, shortened: as §1

HeLa (cervical cancer) = test: Antiproliferative activity (CCK-8 cell viability), HeLa; settings: Homo sapiens, 72 h, read-out: Antiproliferative activity in cancerous cells, HELA (inhibition of cell growth); for inhibition at 3.3 µM: Compound concentration: 3.3 μM; for inhibition at 10 µM: Compound concentration: 10 μM
Procedure, shortened: as §1

[4] = tested on: MDA-MB-231 (breast cancer); test: Antiproliferative activity (CCK-8 cell viability), MDA-MB-231; settings: Homo sapiens, 72 h, read-out: Antiproliferative activity in cancerous cells, MDA-MB-231 (inhibition of cell growth); for inhibition at 3.3 µM: Compound concentration: 3.3 μM; for inhibition at 10 µM: Compound concentration: 10 μM
Procedure, shortened: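 Growth inhibition of human MDA-MB-231 breast cancer cells was assessed with a Cell Counting Kit-8. Cells cultured in DMEM plus 10% FBS were seeded at 2,000-5,000 cells/well, treated after attachment, and kept 72 h at 37° C. CCK-8 solution (10 μL) was added for 4 h, and absorbance at 450 nm was compared with DMSO-treated controls.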

| SMILES | inhibition at 3.3 µM (HepG2 (liver cancer)) | inhibition at 10 µM (HepG2 (liver cancer)) | inhibition at 3.3 µM [1] | inhibition at 10 µM [1] | inhibition at 3.3 µM [2] | inhibition at 10 µM [2] | inhibition at 3.3 µM [3] | inhibition at 10 µM [3] | inhibition at 3.3 µM (SW480 (colon cancer)) | inhibition at 10 µM (SW480 (colon cancer)) | inhibition at 3.3 µM (HeLa (cervical cancer)) | inhibition at 10 µM (HeLa (cervical cancer)) | inhibition at 3.3 µM [4] | inhibition at 10 µM [4] | inhibition at 30 µM (SW480 (colon cancer); Compound concentration: 30 μM, read-out: Antiproliferative activity in cancerous cells, SW480) |
| --- | --- | --- | --- | --- | --- | --- | --- | --- | --- | --- | --- | --- | --- | --- | --- |
| CCc1ccc2c(c1)C(CC(=O)O)=C(C)/C2=C/c1ccc(COc2ccc(C(F)(F)F)cc2)cc1 [B60, (Z)-2-(5-Ethyl-2-methyl-1-(4-((4-(trifluoromethyl)phenoxy)methyl)benzylidene)-1H-inden-3-yl)acetic acid] | ≥ 50% | ≥ 50% | ≥ 50% | ≥ 50% | 30 to 50% | ≥ 50% | 30 to 50% | ≥ 50% | < 30% | ≥ 50% | 30 to 50% | ≥ 50% | < 30% | < 30% | – |
| CC1=C(CC(=O)O)c2cc(F)ccc2/C1=C\c1cccc(C(=O)Nc2ccc(F)cc2)c1 [B69, (Z)-2-(5-Fluoro-1-(3-((4-fluorophenyl)carbamoyl)benzylidene)-2-methyl-1H-inden-3-yl)acetic acid] | 30 to 50% | ≥ 50% | < 30% | ≥ 50% | < 30% | ≥ 50% | ≥ 50% | ≥ 50% | 30 to 50% | ≥ 50% | ≥ 50% | ≥ 50% | 30 to 50% | ≥ 50% | – |
| CC1=C(CC(=O)O)c2cc(F)ccc2/C1=C\c1ccc(OCc2cc3ccccc3s2)cc1 [B70, (Z)-2-(1-(4-(Benzo[b]thiophen-2-ylmethoxy)benzylidene)-5-fluoro-2-methyl-1H-inden-3-yl)acetic acid] | ≥ 50% | ≥ 50% | 30 to 50% | 30 to 50% | ≥ 50% | ≥ 50% | ≥ 50% | ≥ 50% | 30 to 50% | ≥ 50% | ≥ 50% | ≥ 50% | 30 to 50% | ≥ 50% | – |
| CCc1ccc2c(c1)C(CC(=O)O)=C(C)/C2=C/c1cccc(COc2ccc(F)cc2)c1 [B71, (Z)-2-(5-Ethyl-1-(3-((4-fluorophenoxy)methyl)benzylidene)-2-methyl-1H-inden-3-yl)acetic acid] | < 30% | < 30% | ≥ 50% | ≥ 50% | 30 to 50% | ≥ 50% | < 30% | ≥ 50% | < 30% | < 30% | < 30% | ≥ 50% | < 30% | ≥ 50% | – |
| CC1=C(CC(=O)O)c2cc(F)ccc2/C1=C\c1ccc(COc2ccc(Cl)cc2)cc1Br [B72, (Z)-2-(1-(2-Bromo-4-((4-chlorophenoxy)methyl)benzylidene)-5-fluoro-2-methyl-1H-inden-3-yl)acetic acid] | ≥ 50% | ≥ 50% | ≥ 50% | ≥ 50% | ≥ 50% | ≥ 50% | ≥ 50% | ≥ 50% | 30 to 50% | 30 to 50% | ≥ 50% | ≥ 50% | 30 to 50% | 30 to 50% | 30 to 50% |
